Data taken from patent publication US10464893B2, “Derivatives of pyrrole-2,5-diones having a fungicidal activity, their agronomical compositions and use thereof” (ISAGRO S.p.A., priority 2016, dated 2019).

Assays:
[1] = test system: Plasmopara viticola; experiment: Preventive activity (7 days) against Plasmopara viticola on vines; type: in vivo; conditions: leaf spray on vine plants, inoculation 7 days after treatment, reduction of diseased leaf area vs non-treated (100=total effectiveness)
Protocol: Determination of the Preventive Activity (7 Days) of Compounds Having Formula (I) Against Plasmopara viticola on Vines
Leaves of vine plants, grown in pots, in a conditioned environment (20±1° C., 70% of R.H.), were treated by spraying both sides with the products under examination.
7 days after the treatment, the plants were inoculated with an aqueous suspension of spores of Plasmopara viticola (200,000 spores/cc) by spraying on both sides of the leaves with a compressed air gun.
(§1) After remaining 24 hours in a humidity saturated environment, at 21° C., the plants were transferred for the incubation period (7 days) to a conditioned environment at 70% R.H. and at 24° C.
(§2) After this period, the external symptoms of the pathogen appeared and it was consequently possible to proceed with a visual evaluation of the intensity of the infection.
(§3) The fungicidal activity is expressed as a reduction percentage, with respect to non-treated seedlings, in the area of the leaves affected by the disease (100=total effectiveness, 0=zero effectiveness).
Table 2 indicates the results obtained for the compounds tested, compared with the reference product Mancozeb (polymeric complex of manganese ethylenebisdithiocarbamate with zinc salt).

[2] = test system: Uromyces appendiculatus; experiment: Preventive activity (7 days) against Uromyces appendiculatus on beans; type: in vivo; conditions: leaf spray on bean plants, inoculation 7 days after treatment, reduction of diseased leaf area vs non-treated (100=total effectiveness)
Protocol: Determination of the Preventive Activity (7 Days) of Compounds Having Formula (I) Against Uromyces appendiculatus on Beans
Leaves of bean plants, grown in pots, in a conditioned environment (20±1° C., 70% of R.H.), were treated by spraying both sides with the products under examination.
7 days after the treatment, the plants were inoculated with an aqueous suspension of spores of Uromyces appendiculatus (200,000 spores/cc) by spraying on both sides of the leaves with a compressed air gun.
as §1, §2, §3
Table 3 indicates the results obtained for the compounds tested, compared with the reference product Domark® (Tetraconazole).

Question: Which “Effectiveness (%)” value ([1]; dose 125 ppm) does the source give for `CS(=O)(=O)N1C(=O)C(c2ccccc2)=C(c2cccc3ccccc23)C1=O` [Compound 3, 1-methanesulfonyl-3-phenyl-4-(1-naphthyl)-1H-pyrrol-2,5-dione] here?
Answer: 86%

Question: And the “Effectiveness (%)” value ([1]; dose 500 ppm)?
Answer: 99%

Question: What about the “Effectiveness (%)” value ([2]; dose 125 ppm) of the same compound?
Answer: 84%

Question: What about the “Effectiveness (%)” value ([2]; dose 500 ppm) of the same compound?
Answer: 93%

Question: How did the “Effectiveness (%)” value ([1]; dose 125 ppm) turn out when `CC(=O)ON1C(=O)C(c2ccccc2Br)=C(c2cccc3ccccc23)C1=O` [Compound 11, 1-acetyloxy-3-(2-bromophenyl)-4-(1-naphthyl)-1H-pyrrole-2,5-dione] was run?
Answer: 82%

Question: And the “Effectiveness (%)” value ([1]; dose 500 ppm)?
Answer: 92%

Question: And the “Effectiveness (%)” value ([2]; dose 125 ppm)?
Answer: 80%

Question: And the “Effectiveness (%)” value ([2]; dose 500 ppm)?
Answer: 95%

Question: For `CS(=O)(=O)ON1C(=O)C(c2ccccc2Br)=C(c2cccc3ccccc23)C1=O` [Compound 12, 3-(2-bromophenyl)-1-(methane-sulfonyloxy)-4-(1-naphthyl)-1H-pyrrole-2,5-dione], which “Effectiveness (%)” value ([1]; dose 125 ppm) is on record?
Answer: 91%

Question: What about the “Effectiveness (%)” value ([1]; dose 500 ppm) of the same compound?
Answer: 93%

Question: What about the “Effectiveness (%)” value ([2]; dose 125 ppm) of the same compound?
Answer: 83%

Question: And the “Effectiveness (%)” value ([2]; dose 500 ppm)?
Answer: 98%

Question: What does the source list for `CCOC(=O)NN1C(=O)C(c2ccccc2Br)=C(c2cccc3ccccc23)C1=O` [Compound 13, ethyl 3-(2-bromophenyl)-4-(1-naphthyl)-2,5-dione-1H-pyrrolylcarbamate]?
Answer: Effectiveness (%) ([1]; dose 125 ppm): 89%; Effectiveness (%) ([1]; dose 500 ppm): 97%; Effectiveness (%) ([2]; dose 125 ppm): 81%; Effectiveness (%) ([2]; dose 500 ppm): 92%

Question: Which results are given for “polymeric complex of manganese ethylenebisdithiocarbamate with zinc salt [Mancozeb, reference compound]”?
Answer: Effectiveness (%) ([1]; dose 125 ppm): 78%; Effectiveness (%) ([1]; dose 500 ppm): 96%

Question: For “t-butyl 3-phenyl-4-(1-naphthyl)-2,5-dione-1H-pyrrolylcarbamate [Compound 8]”, which “Effectiveness (%)” value ([2]; dose 125 ppm) is on record?
Answer: 93%

Question: What about the “Effectiveness (%)” value ([2]; dose 500 ppm) of the same compound?
Answer: 95%
